Key:
[1] = molecular target: Dihydrofolate reductase (Lactobacillus casei) (UniProt P00381); conditions: Lacticaseibacillus casei
Description: Tested for 50% reversible inhibition of Lactobacillus casei dihydrofolate reductase (spectrophotometric assay).

[2] = molecular target: T1, Dihydrofolate reductase (Mus musculus) (UniProt P00375); conditions: L1210
T1 sequence (whole entry): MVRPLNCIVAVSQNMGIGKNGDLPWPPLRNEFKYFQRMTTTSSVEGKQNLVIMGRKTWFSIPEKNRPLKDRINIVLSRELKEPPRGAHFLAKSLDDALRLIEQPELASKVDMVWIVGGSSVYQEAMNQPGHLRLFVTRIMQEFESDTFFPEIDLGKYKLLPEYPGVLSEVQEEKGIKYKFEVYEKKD
Description: Concentration of inhibitor to decrease binding of [3H]MTX radioligand to Dihydrofolate reductase from L1210 cells by 50%.

[3] = molecular target: Dihydrofolate reductase (Lactobacillus casei) (UniProt P00381); conditions: Lacticaseibacillus casei; remark: listed apart in the source
Description: Concentration of inhibitor required to decrease binding of [3H]MTX radioligand to Lactobacillus casei dihydrofolate reductase by 50%.

Dihydrofolate reductase (Lactobacillus casei), sequence (P00381 whole entry): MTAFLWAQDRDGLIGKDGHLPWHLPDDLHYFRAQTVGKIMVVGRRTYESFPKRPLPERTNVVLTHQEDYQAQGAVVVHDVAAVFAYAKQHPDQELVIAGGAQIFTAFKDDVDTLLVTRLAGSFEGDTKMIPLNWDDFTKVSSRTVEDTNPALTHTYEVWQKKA

CN(Cc1cnc2nc(N)nc(N)c2n1)c1ccc(C(=O)NC(CCCCNC(=O)OCc2ccccc2)C(=O)O)cc1 (centres undefined)
ID50 [1]: 14 nM
ID50 [2]: 11 nM
ID50 [3]: 45 nM

CN(Cc1cnc2nc(N)nc(N)c2n1)c1ccc(C(=O)NC(CCCCNC(=O)CI)C(=O)O)cc1 (centres undefined)
ID50 [1]: 4.5 nM
ID50 [2]: 9.8 nM
ID50 [3]: 31 nM

CN(Cc1cnc2nc(N)nc(N)c2n1)c1ccc(C(=O)NC(CCCCN)C(=O)O)cc1 (centres undefined)
ID50 [1]: 23 nM
ID50 [2]: 11 nM
ID50 [3]: 122 nM

From ChEMBL document CHEMBL1122114
